Source: patent US5384412A, “Saccharide intermediates in the formation of the calicheamicin and esperamicin oligosaccharides” (priority 1992, dated 1995)
Read-outs that look alike come from different tables or passages of the source.

How the values were obtained:
[1] = system: 93 base-pair Sal I - Sph I double-stranded DNA fragment of pBR322; assay: DNase I footprinting of oligosaccharides on labeled DNA fragment; type: binding; details: for DNA binding selectivity from footprinting: footprinting studies, O-methyl glycoside; for protection against DNase I cleavage (footprinting): pre-incubated with DNA at 37° C. for 30 minutes, autoradiography
Description: Footprinting studies the O-methyl glycosides of saccharide Compounds 167a, 100, its C-4 epimer (100a) and a similar compound lacking the iodo group in Ring C, 100b, shown below, were designed to probe these questions.
The oligosaccharides 167a, 100, 100a, and 100b were obtained by chemical synthesis following procedures similar to those discussed before. The 93 base-pair Sal I - Sph I double-stranded DNA fragment of pBR322 was obtained enzymatically and was [5'-^32 P]-labeled on one strand. pBR322 DNA was cleaved at the unique Sal I site, dephosphorylated using calf intestine phosphatase, 5'-^32 P]-phosphorylated using T4 polynucleotide kinase and [g-^32 P ATP (4.5 ^m Ci/pmol), and cleaved again at the unique Sph I site. These precursors generated a 93 base-pair double-stranded fragment, [5'-^32 P]-labeled at the Sal I end, which was purified by gel electrophoresis in a nondenaturing 10 percent polyacrylamide gel and subsequent column chromatography on Sephadex G-25. The oligosaccharides were pre-incubated with the DNA fragment at 37° C. for 30 minutes and DNase I was added to cleave the DNA and generate footprinting patterns by autoradiography.
The degree of protection against DNase I digestion offered by both the natural and unnatural stereoisomers was determined by comparing the amount of radioactivity in adjacent lanes along the electrophoresis gel. The protected regions coincided only roughly with calicheamicin γ1^I recognition sequences [(a) Zein et al., Science, 240:1198 (1988); (b) Zein et al., Science, 244:697 (1989); (c) Ding et al., J. Am. Chem. Soc., 113:6617 (1991)], Schreiber [Hawley et al., Proc. Natl. Acad. Sci. U.S.A., 86:1105 (1989)] and observed calicheamicin γ1^I cleavage sites.

[2] = system: duplex DNA; details: cited from earlier work
[3] = system: DNA; details: Zein et al., Science, 244:697 (1989), cited from earlier work

Molecule	protection against DNase I cleavage (footprinting) [1]	sequence specificity of DNA cleaving [3]	further results
CCN[C@H]1CO[C@@H](O[C@H]2[C@H](OC)O[C@H](C)[C@@H](NO[C@H]3C[C@H](O)[C@H](SC(=O)c4c(C)c(I)c(O[C@@H]5O[C@@H](C)[C@H](O)[C@@H](OC)[C@H]5O)c(OC)c4OC)[C@@H](C)O3)[C@@H]2O)C[C@@H]1OC [Compound 100]	concentration-dependent protection, presumably due to binding, in the region of three calicheamicin γ1^I binding sites: CTCT, TCCT and AGGA	–	DNA binding selectivity from footprinting [1]: selective binding of oligosaccharide Compound 100 with specific base sequences of DNA; DNA binding selectivity from footprinting ([1]; listed as calicheamicin oligosaccharide glycoside): binds specifically to DNA, the preferred saccharide binding sites do not coincide precisely with those observed for intact calicheamicin; interaction with duplex DNA ([2]; previous studies by the Ellestad, Schreiber, Kahne and Danishefsky groups): selective interactions of the calicheamicin γ1^I oligosaccharide with duplex DNA along specific sequences within the minor groove
CCN[C@H]1CO[C@@H](O[C@H]2[C@H](OC)O[C@H](C)[C@H](NO[C@H]3C[C@H](O)[C@H](SC(=O)c4c(C)c(I)c(O[C@@H]5O[C@@H](C)[C@H](O)[C@@H](OC)[C@H]5O)c(OC)c4OC)[C@@H](C)O3)[C@@H]2O)C[C@@H]1OC [Compound 100a]	no protection at the same concentrations	–	–
esperamicin	–	no strong sequence specificity in DNA cleaving	sequence specificity of DNA cleaving ([3]; listed as Esperamicins): less sequence specific
CCN[C@H]1CO[C@@H](O[C@H]2[C@H](O[C@H]3C#CC=CC#C[C@@]4(O)CC(=O)C(NC(=O)OC)=C3/C4=C\CSSSC)O[C@H](C)[C@@H](NO[C@H]3C[C@H](O)[C@H](SC(=O)c4c(C)c(I)c(O[C@@H]5O[C@@H](C)[C@H](O)[C@@H](OC)[C@H]5O)c(OC)c4OC)[C@@H](C)O3)[C@@H]2O)C[C@@H]1OC (stereo in doubt) [calicheamicin γ1^I, reference compound]	–	double DNA strand cuts at specific sequences	DNA binding site ([2]; double stranded DNA minor groove): anchors itself on the 5' side of a TCCT sequence
CCN[C@H]1CO[C@@H](O[C@H]2[C@H](OC)O[C@H](C)[C@@H](NO[C@H]3C[C@H](O)[C@H](SC(=O)c4c(C)cc(O[C@@H]5O[C@@H](C)[C@H](O)[C@@H](OC)[C@H]5O)c(OC)c4OC)[C@@H](C)O3)[C@@H]2O)C[C@@H]1OC [Compound 100b]	lack of protection under the same conditions	–	–
